Source: PubChem BioAssay (NCI)
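These data come from cells grown in 96-well plates and exposed to compound for 48 hours at five concentrations. TGI marks complete inhibition of growth.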

Columns and labels:
Experiment in all cases: DTP human tumour cell line panel, 48 h
UO-31 renal = system: UO-31 renal
CCRF-CEM leukemia = system: CCRF-CEM leukemia
IGROV1 ovarian = system: IGROV1 ovarian
U251 CNS = system: U251 CNS
DU-145 prostate = system: DU-145 prostate
HT29 colon = system: HT29 colon
UACC-257 melanoma = system: UACC-257 melanoma
SK-MEL-28 melanoma = system: SK-MEL-28 melanoma
SR leukemia = system: SR leukemia
PC-3 prostate = system: PC-3 prostate
MDA-N = system: MDA-N
UACC-62 melanoma = system: UACC-62 melanoma
HL-60(TB) leukemia = system: HL-60(TB) leukemia
HOP-62 NSCLC = system: HOP-62 NSCLC
A498 renal = system: A498 renal
SNB-75 CNS = system: SNB-75 CNS
CAKI-1 renal = system: CAKI-1 renal
HCT-116 colon = system: HCT-116 colon
OVCAR-3 ovarian = system: OVCAR-3 ovarian
HOP-92 NSCLC = system: HOP-92 NSCLC

SMILES	TGI (UO-31 renal)	TGI (CCRF-CEM leukemia)	TGI (IGROV1 ovarian)	TGI (U251 CNS)	TGI (DU-145 prostate)	TGI (HT29 colon)	TGI (UACC-257 melanoma)	TGI (SK-MEL-28 melanoma)	TGI (SR leukemia)	TGI (PC-3 prostate)	TGI (MDA-N)	TGI (UACC-62 melanoma)	TGI (HL-60(TB) leukemia)	TGI (HOP-62 NSCLC)	TGI (A498 renal)	TGI (SNB-75 CNS)	TGI (CAKI-1 renal)	TGI (HCT-116 colon)	TGI (OVCAR-3 ovarian)	TGI (HOP-92 NSCLC)
O=C1NCN(c2ccccc2)C12CCN(CC1COc3ccccc3O1)CC2 (stereo not given)	> 100 µM	> 100 µM	> 100 µM	79.6 µM	> 100 µM	> 100 µM	> 100 µM	> 100 µM	> 100 µM	> 100 µM	> 100 µM	> 100 µM	> 100 µM	52.8 µM	> 100 µM	71.4 µM	> 100 µM	> 100 µM	> 100 µM	–
C1CSCC2(COC2)CSCCSCC2(COC2)CS1	> 100 µM	> 100 µM	> 100 µM	> 100 µM	> 100 µM	> 100 µM	> 100 µM	> 100 µM	> 100 µM	> 100 µM	> 100 µM	> 100 µM	> 100 µM	> 100 µM	–	> 100 µM	–	> 100 µM	> 100 µM	> 100 µM
CC(=O)/C(=C\I)c1ccccc1	10.3 µM	5.19 µM	4.25 µM	5.37 µM	15.3 µM	2.29 µM	15.5 µM	10.4 µM	–	5.08 µM	3.28 µM	3.96 µM	3.49 µM	46.9 µM	32.3 µM	20.3 µM	–	4.65 µM	3.23 µM	4.74 µM
O=C1NC2(CCNCC2)Oc2ccccc21	> 100 µM	> 100 µM	> 100 µM	> 100 µM	> 100 µM	> 100 µM	> 100 µM	> 100 µM	> 100 µM	> 100 µM	> 100 µM	> 100 µM	> 100 µM	> 100 µM	–	> 100 µM	> 100 µM	> 100 µM	> 100 µM	> 100 µM
Cc1cn(C2CC(N=[N+]=[N-])C(COP(=O)(O)OCC3OC(n4cc(F)c(=O)[nH]c4=O)CC3O)O2)c(=O)[nH]c1=O (stereo not given)	> 100 µM	> 100 µM	9.57 µM	> 100 µM	> 100 µM	> 100 µM	> 100 µM	> 100 µM	> 100 µM	> 100 µM	> 100 µM	> 100 µM	> 100 µM	> 100 µM	> 100 µM	21.6 µM	> 100 µM	> 100 µM	> 100 µM	–
CC(C)[C@H]1NC(=O)[C@H]2N=C(S[C@H]2C)[C@@H]2CCCN2C(=O)[C@H](Cc2ccccc2)NC(=O)[C@@H]2CSC(=N2)[C@@H](Cc2ccccc2)NC(=O)[C@@H]2CSC1=N2	> 50 µM	46.4 µM	> 50 µM	> 50 µM	> 50 µM	> 50 µM	> 50 µM	> 50 µM	19.7 µM	> 50 µM	> 50 µM	> 50 µM	16.3 µM	> 50 µM	41.7 µM	–	> 50 µM	> 50 µM	> 50 µM	–
C[C@@H]1CC[C@H]2[C@H](C)C(OC3O[C@@H]4O[C@@]5(C)CC[C@H]6[C@H](C)CC[C@@H]([C@@H]3C)[C@@]46O5)O[C@@H]3O[C@@]4(C)CC[C@@H]1[C@]32O4 (stereo not given in full)	–	> 100 µM	–	> 100 µM	> 100 µM	> 100 µM	> 100 µM	> 100 µM	> 100 µM	> 100 µM	> 100 µM	> 100 µM	> 100 µM	> 100 µM	> 100 µM	> 100 µM	> 100 µM	> 100 µM	> 100 µM	–
CCOc1ccc(NC(=O)C(=O)Nn2c(N)nnc2N)cc1	> 100 µM	> 100 µM	> 100 µM	> 100 µM	–	> 100 µM	> 100 µM	> 100 µM	> 100 µM	> 100 µM	> 100 µM	> 100 µM	> 100 µM	> 100 µM	> 100 µM	> 100 µM	> 100 µM	> 100 µM	> 100 µM	> 100 µM
CC(C)OP(=O)(OC(C)C)C(C)(C)O	> 100 µM	> 100 µM	> 100 µM	> 100 µM	> 100 µM	> 100 µM	> 100 µM	> 100 µM	> 100 µM	> 100 µM	> 100 µM	> 100 µM	> 100 µM	> 100 µM	–	> 100 µM	> 100 µM	> 100 µM	> 100 µM	> 100 µM
NC(=O)[N+](=CC(=S)Nc1ccccc1Cl)C(N)=O	> 100 µM	> 100 µM	> 100 µM	> 100 µM	> 100 µM	> 100 µM	> 100 µM	–	> 100 µM	> 100 µM	> 100 µM	> 100 µM	> 100 µM	> 100 µM	–	–	> 100 µM	> 100 µM	> 100 µM	> 100 µM
O=C(Nc1ccccc1)OCCN=C1c2ccccc2CCc2ccccc21	43.7 µM	55.7 µM	58.2 µM	32.1 µM	91.3 µM	37 µM	54.2 µM	28.7 µM	38.9 µM	82.8 µM	37.2 µM	26.7 µM	42.2 µM	49.4 µM	–	> 100 µM	88 µM	30 µM	44.3 µM	–
CCSC1=N/C(=C\c2ccco2)C(=O)N1	> 100 µM	> 100 µM	> 100 µM	> 100 µM	> 100 µM	> 100 µM	–	> 100 µM	> 100 µM	> 100 µM	> 100 µM	> 100 µM	–	> 100 µM	> 100 µM	> 100 µM	–	> 100 µM	> 100 µM	> 100 µM
CCOC(=O)c1c[nH]c(C(=O)C=[N+]=[N-])c1C1CCN(CC)C1=S (stereo not given)	> 100 µM	–	> 100 µM	> 100 µM	> 100 µM	> 100 µM	> 100 µM	> 100 µM	–	> 100 µM	> 100 µM	> 100 µM	–	> 100 µM	> 100 µM	> 100 µM	> 100 µM	> 100 µM	> 100 µM	> 100 µM
